Laboratory results taken from publication PMC11671597, “The anticancer effect of metformin targets VDAC1 via ER-mitochondria interactions-mediated autophagy in HCC” (Experimental & Molecular Medicine, 2024).

Molecular target: voltage-dependent anion channel 1 (VDAC1) (Homo sapiens, UniProt P21796)
Assay: microscale thermophoresis (MST); supported by dose-dependent DARTS in HepG2 mitochondrial lysate (EC50 […]) and loss of protection in D9A/E203A mutants
Format: binding

Sequence of voltage-dependent anion channel 1 (VDAC1) (P21796 2-283): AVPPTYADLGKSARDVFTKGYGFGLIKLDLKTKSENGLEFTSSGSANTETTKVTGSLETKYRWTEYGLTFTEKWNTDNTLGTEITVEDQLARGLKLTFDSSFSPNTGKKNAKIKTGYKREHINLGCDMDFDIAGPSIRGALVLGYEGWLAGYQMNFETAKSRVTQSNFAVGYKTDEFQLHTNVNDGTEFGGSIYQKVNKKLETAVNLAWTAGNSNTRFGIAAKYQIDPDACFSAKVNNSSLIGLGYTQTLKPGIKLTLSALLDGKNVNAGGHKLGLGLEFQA

- Kd: 204 µM
SMILES: CN(C)C(=N)N=C(N)N [Metformin]
